Experimental data taken from ChEMBL document CHEMBL4219087, “Investigation of multi-target-directed ligands (MTDLs) with butyrylcholinesterase (BuChE) and indoleamine 2,3-dioxygenase 1 (IDO1) inhibition: The design, synthesis of miconazole analogues targeting Alzheimer's disease” (Bioorg Med Chem, 2018).
pIC50: −log10 of the molar value.

Legend:
[1] = molecular target: Acetylcholinesterase (Electrophorus electricus, UniProt O42275); assay: Inhibition of electric eel AChE using acetylthiocholine iodide as substrate preincubated for 5 mins followed by substrate addition measured after 2 mins by modified Ellman assay
Sequence of Acetylcholinesterase (O42275 whole entry): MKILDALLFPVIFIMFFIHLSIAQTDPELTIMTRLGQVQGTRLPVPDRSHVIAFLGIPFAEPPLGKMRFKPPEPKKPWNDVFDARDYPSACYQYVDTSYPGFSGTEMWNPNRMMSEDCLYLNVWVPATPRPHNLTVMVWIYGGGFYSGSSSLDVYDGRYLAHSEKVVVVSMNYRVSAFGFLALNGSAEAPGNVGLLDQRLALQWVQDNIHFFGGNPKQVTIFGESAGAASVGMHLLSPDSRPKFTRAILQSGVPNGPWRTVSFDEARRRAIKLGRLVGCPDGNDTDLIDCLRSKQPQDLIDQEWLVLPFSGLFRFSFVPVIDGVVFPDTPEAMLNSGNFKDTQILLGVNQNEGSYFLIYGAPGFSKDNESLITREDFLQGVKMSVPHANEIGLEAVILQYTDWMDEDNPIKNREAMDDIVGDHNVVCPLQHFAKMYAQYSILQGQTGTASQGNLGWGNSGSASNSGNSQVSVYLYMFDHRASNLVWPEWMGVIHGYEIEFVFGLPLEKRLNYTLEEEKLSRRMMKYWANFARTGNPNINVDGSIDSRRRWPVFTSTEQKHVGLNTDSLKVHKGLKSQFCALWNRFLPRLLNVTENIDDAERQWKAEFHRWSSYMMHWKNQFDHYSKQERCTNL

[2] = molecular target: Cholinesterase (Equus caballus, UniProt P81908); assay: Inhibition of equine serum BChE using butyrylthiocholine iodide as substrate preincubated for 5 mins followed by substrate addition measured after 2 mins by modified Ellman assay
Sequence of Cholinesterase (P81908 whole entry): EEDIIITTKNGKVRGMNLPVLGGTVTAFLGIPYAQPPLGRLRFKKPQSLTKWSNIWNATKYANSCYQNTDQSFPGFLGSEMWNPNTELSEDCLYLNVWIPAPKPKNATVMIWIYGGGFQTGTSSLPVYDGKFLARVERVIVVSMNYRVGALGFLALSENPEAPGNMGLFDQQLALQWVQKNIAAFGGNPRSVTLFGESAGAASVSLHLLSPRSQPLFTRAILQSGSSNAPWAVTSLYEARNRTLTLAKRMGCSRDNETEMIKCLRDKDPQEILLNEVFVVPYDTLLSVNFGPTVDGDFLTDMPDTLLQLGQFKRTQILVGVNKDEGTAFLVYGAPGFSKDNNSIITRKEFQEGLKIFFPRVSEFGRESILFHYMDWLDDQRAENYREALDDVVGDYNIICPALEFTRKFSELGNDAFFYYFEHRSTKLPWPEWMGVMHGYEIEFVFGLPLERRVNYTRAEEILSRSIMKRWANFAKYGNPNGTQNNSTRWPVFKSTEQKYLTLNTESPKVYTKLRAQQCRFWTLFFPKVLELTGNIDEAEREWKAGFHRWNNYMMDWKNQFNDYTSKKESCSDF

[3] = Selectivity index, ratio of IC50 for electric eel AChE to IC50 for equine serum BChE
[4] = molecular target: Indoleamine 2,3-dioxygenase 1 (Homo sapiens, UniProt P14902); assay: Inhibition of human recombinant IDO1 using L-tryptophan as substrate after 30 mins by fluorimetric analysis
Sequence of Indoleamine 2,3-dioxygenase 1 (P14902 whole entry): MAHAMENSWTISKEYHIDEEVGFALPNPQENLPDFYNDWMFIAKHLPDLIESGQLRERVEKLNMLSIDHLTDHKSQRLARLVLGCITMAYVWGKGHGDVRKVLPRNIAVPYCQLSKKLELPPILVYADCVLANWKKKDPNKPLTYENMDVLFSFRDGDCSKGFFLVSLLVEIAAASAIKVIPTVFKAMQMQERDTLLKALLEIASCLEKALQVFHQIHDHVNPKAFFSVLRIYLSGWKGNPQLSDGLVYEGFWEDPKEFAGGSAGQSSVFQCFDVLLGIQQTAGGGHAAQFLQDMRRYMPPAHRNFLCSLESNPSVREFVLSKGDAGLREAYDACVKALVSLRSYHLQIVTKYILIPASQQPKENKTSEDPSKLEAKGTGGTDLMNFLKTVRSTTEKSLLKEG

[5] = test system: Mus musculus; assay: Reversal of scopolamine-induced cognitive function impairment in ICR mouse assessed as escape latency time at 15 mg/kg, po dosed 30 mins prior to scopolamine treatment by Morris water maze test (reference value: 40.5 sec); assay type: functional
[6] = test system: Mus musculus; assay: Hepatotoxicity in ICR mouse assessed as serum ALT level at 15 mg/kg, ig after 8 hrs; assay type: toxicity, organism-based; conditions: in vivo, po
[7] = test system: Mus musculus; assay: Hepatotoxicity in ICR mouse assessed as serum ALT level at 15 mg/kg, ig after 22 hrs; assay type: toxicity, organism-based; conditions: in vivo, po
[8] = test system: Mus musculus; assay: Hepatotoxicity in ICR mouse assessed as serum ALT level at 15 mg/kg, ig after 36 hrs; assay type: toxicity, organism-based; conditions: in vivo, po
[9] = test system: Mus musculus; assay: Hepatotoxicity in ICR mouse assessed as serum AST level at 15 mg/kg, ig after 8 hrs; assay type: toxicity, organism-based; conditions: in vivo, po
[10] = test system: Mus musculus; assay: Hepatotoxicity in ICR mouse assessed as serum AST level at 15 mg/kg, ig after 22 hrs; assay type: toxicity, organism-based; conditions: in vivo, po
[11] = test system: Mus musculus; assay: Hepatotoxicity in ICR mouse assessed as serum AST level at 15 mg/kg, ig after 36 hrs; assay type: toxicity, organism-based; conditions: in vivo, po
[12] = test system: Mus musculus; assay: Hepatotoxicity in ICR mouse assessed as pericentral necrosis of hepatocytes surrounding intermediate and periportal zones at 15 mg/kg, ig after 30 hrs by hematoxylin and eosin staining-based assay; assay type: toxicity, organism-based; conditions: in vivo, po
[13] = test system: Mus musculus; assay: Hepatotoxicity in ICR mouse assessed as fatty degeneration of hepatocytes surrounding intermediate and periportal zones at 15 mg/kg, ig after 30 hrs by hematoxylin and eosin staining-based assay; assay type: toxicity, organism-based; conditions: in vivo, po

**Q.** With Cc1ccc(COC(Cn2ccnc2)c2ccc(Cl)cc2Cl)cc1C (centres undefined) as the compound, how does the pIC50 [1] read?
**A.** 4.76

**Q.** What about the pIC50 [2] of the same compound?
**A.** 4.95

**Q.** What about the Ratio IC50 [3] of the same compound?
**A.** 1.6

**Q.** What about the pIC50 [4] of the same compound?
**A.** 5.66

**Q.** With COc1cccc(COC(Cn2ccnc2)c2ccc(Cl)cc2Cl)c1 (centres undefined) as the compound, how does the pIC50 [1] read?
**A.** 4.09

**Q.** What about the pIC50 [2] of the same compound?
**A.** 5.08

**Q.** And the Ratio IC50 [3]?
**A.** 9.9

**Q.** What about the pIC50 [4] of the same compound?
**A.** 5.55

**Q.** What about the Time [5] of the same compound?
**A.** 19.7 s

**Q.** And the Activity [6]?
**A.** Non-Toxic

**Q.** And the Activity [7]?
**A.** Non-Toxic

**Q.** What about the Activity [8] of the same compound?
**A.** Non-Toxic

**Q.** What about the Activity [9] of the same compound?
**A.** Non-Toxic

**Q.** What about the Activity [10] of the same compound?
**A.** Non-Toxic

**Q.** What about the Activity [11] of the same compound?
**A.** Non-Toxic

**Q.** And the Activity [12]?
**A.** Non-Toxic

**Q.** And the Activity [13]?
**A.** Non-Toxic

**Q.** With Nc1c2c(nc3ccccc13)CCCC2 [TACRINE] as the compound, how does the Time [5] read?
**A.** 25.9 s

**Q.** With Fc1ccc(COC(Cn2ccnc2)c2ccc(Cl)cc2Cl)cc1 (centres undefined) as the compound, how does the pIC50 [1] read?
**A.** 4.48

**Q.** And the pIC50 [2]?
**A.** 4.83

**Q.** What about the Ratio IC50 [3] of the same compound?
**A.** 2.3

**Q.** What about the pIC50 [4] of the same compound?
**A.** 5.40

**Q.** Which results are given for CC(C)(C)c1ccc(COC(Cn2ccnc2)c2ccc(Cl)cc2Cl)cc1 (centres undefined)?
**A.** pIC50 [1]: 4.61; pIC50 [2]: 4.33; Ratio IC50 [3]: 0.5; pIC50 [4]: 5.36

**Q.** With Cc1ccccc1COC(Cn1ccnc1)c1ccc(Cl)cc1Cl (centres undefined) as the compound, how does the pIC50 [1] read?
**A.** 4.43

**Q.** And the pIC50 [2]?
**A.** 4.74

**Q.** What about the Ratio IC50 [3] of the same compound?
**A.** 2

**Q.** What about the pIC50 [4] of the same compound?
**A.** 5.66

**Q.** With Clc1ccc(C(Cn2ccnc2)OCc2ccc(Br)cc2)c(Cl)c1 (centres undefined) as the compound, how does the pIC50 [1] read?
**A.** 4.71

**Q.** And the pIC50 [2]?
**A.** 4.88

**Q.** And the Ratio IC50 [3]?
**A.** 1.5

**Q.** And the pIC50 [4]?
**A.** 5.24

**Q.** With COc1ccc(COC(Cn2ccnc2)c2ccc(Cl)cc2Cl)cc1 (centres undefined) as the compound, how does the pIC50 [1] read?
**A.** 4.14

**Q.** What about the pIC50 [2] of the same compound?
**A.** 4.78

**Q.** And the Ratio IC50 [3]?
**A.** 4.4

**Q.** And the pIC50 [4]?
**A.** 6.00

**Q.** What about the Time [5] of the same compound?
**A.** 13.4 s

**Q.** What about the Activity [6] of the same compound?
**A.** Non-Toxic

**Q.** And the Activity [7]?
**A.** Non-Toxic

**Q.** And the Activity [8]?
**A.** Non-Toxic

**Q.** What about the Activity [9] of the same compound?
**A.** Non-Toxic

**Q.** And the Activity [10]?
**A.** Non-Toxic

**Q.** What about the Activity [11] of the same compound?
**A.** Non-Toxic

**Q.** What about the Activity [12] of the same compound?
**A.** Non-Toxic

**Q.** And the Activity [13]?
**A.** Non-Toxic

**Q.** Which results are given for Cc1cccc(COC(Cn2ccnc2)c2ccc(Cl)cc2Cl)c1 (centres undefined)?
**A.** pIC50 [1]: 4.51; pIC50 [2]: 4.84; Ratio IC50 [3]: 2.1; pIC50 [4]: 5.92

**Q.** With Fc1cccc(F)c1COC(Cn1ccnc1)c1ccc(Cl)cc1Cl (centres undefined) as the compound, how does the pIC50 [1] read?
**A.** 3.75

**Q.** What about the pIC50 [2] of the same compound?
**A.** 4.72

**Q.** What about the Ratio IC50 [3] of the same compound?
**A.** 9.2

**Q.** What about the pIC50 [4] of the same compound?
**A.** 5.38

**Q.** What does the source list for Cc1ccc(COC(Cn2ccnc2)c2ccc(Cl)cc2Cl)cc1 (centres undefined)?
**A.** pIC50 [1]: 4.57; pIC50 [2]: 4.96; Ratio IC50 [3]: 2.5; pIC50 [4]: 5.70
